Experimental data taken from patent US12441693B2, “Targeting STAT sumoylation to enhance immune responses” (THE GEORGE WASHINGTON UNIVERSITY, priority 2018, dated 2025).

What was measured:
[1] = test system: STAT5 transcriptional activity; assay: Primary cell screening assay (CD69 expression, STAT5 transcriptional activity); assay type: cell-based; details: primary human CD4 T cells
Description: It was observed that the ability of different benzotriazole and benzotriazin derivatives to increase STAT5 phosphorylation correlated with the ability of the compounds to induce the expression of CD69 (a STAT5 target gene) (FIG. 2A) but not CD25 (FIG. 2B) in the surface of human CD4 T cells. Based on these findings, a primary cell screening assay was set up according to FIG. 2C to identify derivatives with similar activity. As an example, flow cytometry was performed to isolated activated cells (FIG. 2D), which were expanded in the presence of DMSO or a compound of interest (FIG. 2E), and screened for changes in the expression of CD69 (FIG. 2F).

[2] = test system: STAT5, STAT1, STAT3; assay: Western blot of phosphorylated STATs in NK cells; assay type: cell-based, human
Description: Next, NK cells were cultured with IL-15 in the presence or absence of HODHBt and levels of phosphorylated STATs were measured by Western blot.
In general, samples are prepared and loaded on to a gel and during the electrophoresis the negatively charged proteins move toward the positively charged anode. In order to further analyze the proteins, they are transferred onto a membrane in a procedure called blotting. After the transfer, the membrane is blocked in order to prevent unwanted membrane-protein interaction in the following steps. To visualize the protein of interest the membrane is commonly first probed using a primary protein-specific antibody followed by a labeled secondary antibody used for detection. An image is taken of the membrane and the result is analyzed.

[3] = test system: NK cells; assay: In vitro expansion of NK cells with IL-2; assay type: cell-based, human; details: 500 IU/ml of IL-2, two HIV-negative donors
Text: As for CD8 T cells, STATS play an important role in the expansion of NK cells. As such, it was hypothesized that inhibiting STAT SUMOylation may enhance the expansion of NK cells. This has important implications for adoptive cell immunotherapies as NK cells are increasingly becoming an attractive alternative to T cell therapies. In order to address whether inhibiting STAT SUMOylation may enhance NK proliferation in vitro, NK cells were isolated from two human HIV-negative donors and expanded using Miltenyi Biotec NK MACS Medium in the presence of 500 IU/ml of IL-2 and in the presence or absence of HODHBt.

[4] = test system: Interferon Stimulated Genes (ISGs); assay: RNASeq of primary CD4 T cells; assay type: cell-based, human; details: IL-2 and HODHBt vs IL-2 and DMSO
Description: RNASeq was performed in primary CD4 T cells treated with HODHBt following the method of Bosque et al., CELL REP. 2017; 18(5):1324-1334, the disclosure of which is hereby incorporated by reference in its entirety.
Total RNA was extracted from cells using Trizol (Invitrogen 15596), polyadenylated RNA was enriched using NEXTflex Poly(A) Beads (Bioo Scientific 512980), and stranded libraries were prepared using a NEXTflex Rapid Directional qRNA-Seq Kit (Bioo Scientific 5130-02D). Sequencing was performed by the Iowa Institute of Human Genetics Genomics Division on an Illumina HiSeq 2500 using 125 base pair (bp) paired-end reads. Raw paired sequences were first trimmed to remove Illumina sequencing adapters and Bioo Scientific randomized 8-mer molecular indexes using Trim Galore! […] For RNA-Seq tracks, reads were then compiled using the genomecov (-split) function of bedtools 2.25.0, normalized by dividing the number of hg19-mapped reads within each sample by the average number of hg19-mapped reads across all nine samples, combined across donors, and visualized on the UCSC Genome Browser. For differential expression analysis, reads were counted over UCSC hg19 genes (26,364 entries) using the featureCounts (-p -B -C -M) function of Subread 1.5.0 (Liao et al., 2014). […]

[5] = test system: Granzyme B, TRAIL; assay: Expression of cytotoxic molecules (Gzm B, TRAIL) in CD8 and CD4 T cells; assay type: cell-based, human

## O=c1c2ccccc2nnn1O [HODHBt]
[1]
  STAT5 transcriptional activity relative to HODHBt: the compound with the strongest activity
[1]; read-out: EC50 in the primary cell screening method
  EC50: ~63 µM
[2]; HODHBt alone
  phosphorylation of STAT1 in NK cells: increased the phosphorylation levels of STAT1
[2]; after IL-15 treatment
  phosphorylation of STAT5 in NK cells: increased the levels of phosphorylation of STAT5 after IL-15 treatment
[2]; with IL-15, vs IL-15
  phosphorylation of STAT1 and STAT3 in NK cells: enhanced the levels of phosphorylation of STAT1 and STAT3 induced by IL-15
[3]
  NK cell expansion: enhanced NK cell expansion in vitro
[4]
  expression of Interferon Stimulated Genes (RNASeq): induction of several Interferon Stimulated Genes
[5]
  levels of Gzm B in CD8 T cells: increased the levels of Gzm B in CD8 T cells
[5]; cultured for three days
  expression of Granzyme B in activated CD8 T cells: increased the levels of expression
  expression of TRAIL in activated CD8 T cells: increased the levels of expression
